Source: US8461305B2, “L-fucose α1→6 specific lectin” (J-Oil Mills, Inc., priority 2008, dated 2013)

Assays:
[1] = frontal affinity chromatography (FAC), association constant to PA sugar chains without L-fucose; type: binding; settings: for association constant Ka: 25 degrees C.
Description: (§1) The following section will describe a method of calculating an association constant by frontal affinity chromatography (FAC). This method is based on the following principle. […] Then, the elution front end (front) is observed immediately. When there is an affinity with lectin, the elution of the sugar chain is delayed.
(§2) The preparation of a lectin column used in the apparatus is performed in the method as described below. 1. Purified lectin is dissolved in 0.1 to 0.2M of NaHCO3 buffer solution (pH 8.3 to 8.5). 2. The lectin is immobilized, via a lectin primary amino group, a carrier such as NHS activated sepharose. 3. Then, the lectin is blocked by Tris buffer solution including primary amine or ethanolamine for example. 4. Lectin-sepharose is suspended in 10 mM Tris buffer, including 0.8% of NaCl (pH 7.4, TBS). Then, lectin immobilized resin is filled in a miniature column (φ2 mm×10 mm, 31.4 μl). 5. The miniature column in which the lectin immobilized resin is filled is protected by a holder and the lectin column is connected to an FAC automatic analysis apparatus (FAC-1, SHIMADZU CORPORATION).
(§3) Then, the elution of the PA sugar chain from the column is detected by a fluorescence detector (excitation wavelength/fluorescence wavelength: 310 nm/380 nm).
(§4) Based on the detection data, by using the elution front end (Vo) of the sugar chain (PA rhamnose) not interacting with lectin as a reference, the delay (V−Vo) of the elution front end (V) of a sugar chain interacting with lectin is calculated as an interaction strength. Then, based on the following FAC criteria expressions, the association constant (Ka) between the sugar chain and lectin is calculated based on V−Vo and Bt. If the interaction strength (V−Vo value) and the association constant are higher, a higher affinity is caused between lectin and an L-fucose α1→6 sugar chain.
(§5) [In the formula, A means substance used for the elution, Ao means the initial concentration of the substance A, B means a immobilized ligand, V means the elution volume, Vo means the elution front end volume of the substance not interacting with the immobilized ligand B at all, Bt means an effective ligand amount, Kd means a dissociation constant (an inverse of the association constant)].
(§6) Pyridylaminated (PA) sugar chains shown in FIG. 1 and FIG. 2 were used to frontal affinity chromatography (FAC) analysis. PA sugars were purchased from TAKARA BIO INC., SEIKAGAKU BIOBUSINESS CORPORATION, and Masuda Chemical Industries co., LTD. PA sugar were also obtained by pyridylaminating, by GlycoTAG®(TAKARA BIO INC.), an unlabeled sugar chain or a sugar chain obtained by subjecting a sugar chain to enzyme digestion for example.
(§7) Lectin was dissolved in 0.2 M NaHCO3 buffer solution (pH 8.3) including 0.5 M NaCl and coupled to the NHS-activated sepharose (GE Healthcare Bioscience) by following the manufacturer's instructions. Then, lectin immobilized sepharose was suspended in 10 mM Tris buffer (pH 7.4, TBS) including […] and the resultant matter was filled in a miniature column (φ2 mm×10 mm, 31.4 μl).
(§8) Frontal affinity chromatography was performed using FAC automatic analysis apparatus (FAC-1, SHIMADZU CORPORATION). In particular, the above-prepared lectin column was inserted to a stainless steel holder and the holder was connected to FAC-1 apparatus. The flow rate and the column temperature were maintained at 0.125 ml/min and 25 degrees C., respectively. After the miniature column was equilibrated by the TBS, an excessive volume (0.5 ml to 4 ml) of a PA sugar chain (3.75 nM or 7.5 nM) was continuously inputted to the column using an automatic sampling apparatus.
(§9) The fluorescent strength of the eluate of the PA sugar (excitation wavelength of 310 nm and fluorescence wavelength of 380 nm) was monitored to measure the interaction strength [a difference of the front end eluate to the standard oligosaccharide (PA rhamnose): V−V0]. […]

[2] = frontal affinity chromatography (FAC), association constant to PA sugar chains having other L-fucose; type: binding; settings: for association constant Ka: 25 degrees C.
Description: as §1, §2, §3, §4, §5, §6, §7, §8, §9

Stropharia rugosoannulata lectin [SRL, novel L-fucose α1→6 specific lectin purified from the mushroom Stropharia rugosoannulata]
binding to sugar chain not having L-fucose ([1]; FAC): not bound | association constant Ka ([1]; Sugar chain No. 001): <1000 M⁻¹ | association constant Ka ([1]; Sugar chain No. 002): <1000 M⁻¹ | association constant Ka ([1]; Sugar chain No. 003): <1000 M⁻¹ | association constant Ka ([1]; Sugar chain No. 004): <1000 M⁻¹ | association constant Ka ([1]; Sugar chain No. 005): <1000 M⁻¹ | association constant Ka ([1]; Sugar chain No. 006): <1000 M⁻¹ | association constant Ka ([1]; Sugar chain No. 007): <1000 M⁻¹ | association constant Ka ([1]; Sugar chain No. 008): <1000 M⁻¹ | association constant Ka ([1]; Sugar chain No. 009): <1000 M⁻¹ | association constant Ka ([1]; Sugar chain No. 010): <1000 M⁻¹ | association constant Ka ([1]; Sugar chain No. 011): <1000 M⁻¹ | association constant Ka ([1]; Sugar chain No. 012): <1000 M⁻¹ | association constant Ka ([1]; Sugar chain No. 013): <1000 M⁻¹ | association constant Ka ([1]; Sugar chain No. 014): <1000 M⁻¹ | association constant Ka ([1]; Sugar chain No. 101): <1000 M⁻¹ | association constant Ka ([1]; Sugar chain No. 103): <1000 M⁻¹ | association constant Ka ([1]; Sugar chain No. 104): <1000 M⁻¹ | association constant Ka ([1]; Sugar chain No. 105): <1000 M⁻¹ | association constant Ka ([1]; Sugar chain No. 107): <1000 M⁻¹ | association constant Ka ([1]; Sugar chain No. 108): <1000 M⁻¹ | association constant Ka ([1]; Sugar chain No. 301): <1000 M⁻¹ | association constant Ka ([1]; Sugar chain No. 304): <1000 M⁻¹ | association constant Ka ([1]; Sugar chain No. 305): <1000 M⁻¹ | association constant Ka ([1]; Sugar chain No. 307): <1000 M⁻¹ | association constant Ka ([1]; Sugar chain No. 308): <1000 M⁻¹ | association constant Ka ([1]; Sugar chain No. 313): <1000 M⁻¹ | association constant Ka ([1]; Sugar chain No. 314): <1000 M⁻¹ | association constant Ka ([1]; Sugar chain No. 323): <1000 M⁻¹ | association constant Ka ([1]; Sugar chain No. 501): <1000 M⁻¹ | association constant Ka ([1]; Sugar chain No. 502): <1000 M⁻¹ | association constant Ka ([1]; Sugar chain No. 503): <1000 M⁻¹ | association constant Ka ([1]; Sugar chain No. 504): <1000 M⁻¹ | association constant Ka ([1]; Sugar chain No. 701): <1000 M⁻¹ | association constant Ka ([1]; Sugar chain No. 702): <1000 M⁻¹ | association constant Ka ([1]; Sugar chain No. 703): <1000 M⁻¹ | association constant Ka ([1]; Sugar chain No. 704): <1000 M⁻¹ | association constant Ka ([1]; Sugar chain No. 705): <1000 M⁻¹ | association constant Ka ([1]; Sugar chain No. 706): <1000 M⁻¹ | association constant Ka ([1]; Sugar chain No. 707): <1000 M⁻¹ | association constant Ka ([1]; Sugar chain No. 708): <1000 M⁻¹ | association constant Ka ([1]; Sugar chain No. 709): <1000 M⁻¹ | association constant Ka ([1]; Sugar chain No. 710): <1000 M⁻¹ | association constant Ka ([1]; Sugar chain No. 711): <1000 M⁻¹ | association constant Ka ([1]; Sugar chain No. 712): <1000 M⁻¹ | association constant Ka ([1]; Sugar chain No. 713): <1000 M⁻¹ | association constant Ka ([1]; Sugar chain No. 715): <1000 M⁻¹ | association constant Ka ([1]; Sugar chain No. 716): <1000 M⁻¹ | association constant Ka ([1]; Sugar chain No. 717): <1000 M⁻¹ | association constant Ka ([1]; Sugar chain No. 724): <1000 M⁻¹ | association constant Ka ([1]; Sugar chain No. 725): <1000 M⁻¹ | association constant Ka ([1]; Sugar chain No. 728 (as listed in Table 7)): <1000 M⁻¹ | association constant Ka ([1]; Sugar chain No. 732): <1000 M⁻¹ | association constant Ka ([1]; Sugar chain No. 733): <1000 M⁻¹ | association constant Ka ([1]; Sugar chain No. 734): <1000 M⁻¹ | association constant Ka ([1]; Sugar chain No. 735): <1000 M⁻¹ | association constant Ka ([1]; Sugar chain No. 736): <1000 M⁻¹ | association constant Ka ([1]; Sugar chain No. 737): <1000 M⁻¹ | association constant Ka ([1]; Sugar chain No. 738): <1000 M⁻¹ | association constant Ka ([1]; Sugar chain No. 901): <1000 M⁻¹ | association constant Ka ([1]; Sugar chain No. 902): <1000 M⁻¹ | association constant Ka ([1]; Sugar chain No. 903): <1000 M⁻¹ | association constant Ka ([1]; Sugar chain No. 905): <1000 M⁻¹ | association constant Ka ([1]; Sugar chain No. 906): <1000 M⁻¹ | association constant Ka ([1]; Sugar chain No. 907): <1000 M⁻¹ | binding to non-L-fucose α1→6 sugar chain ([2]; FAC): not bound | association constant Ka ([2]; Sugar chain No. 419): <1000 M⁻¹ | association constant Ka ([2]; Sugar chain No. 420): <1000 M⁻¹ | association constant Ka ([2]; Sugar chain No. 718): <1000 M⁻¹ | association constant Ka ([2]; Sugar chain No. 719): <1000 M⁻¹ | association constant Ka ([2]; Sugar chain No. 720): <1000 M⁻¹ | association constant Ka ([2]; Sugar chain No. 721): <1000 M⁻¹ | association constant Ka ([2]; Sugar chain No. 722): <1000 M⁻¹ | association constant Ka ([2]; Sugar chain No. 723): <1000 M⁻¹ | association constant Ka ([2]; Sugar chain No. 726): <1000 M⁻¹ | association constant Ka ([2]; Sugar chain No. 727): <1000 M⁻¹ | association constant Ka ([2]; Sugar chain No. 728 (as listed in Table 5/12)): <1000 M⁻¹ | association constant Ka ([2]; Sugar chain No. 729): <1000 M⁻¹ | association constant Ka ([2]; Sugar chain No. 730): <1000 M⁻¹ | association constant Ka ([2]; Sugar chain No. 731): <1000 M⁻¹ | association constant Ka ([2]; Sugar chain No. 739): <1000 M⁻¹ | association constant Ka ([2]; Sugar chain No. 909): <1000 M⁻¹ | association constant Ka ([2]; Sugar chain No. 910): <1000 M⁻¹ | association constant Ka ([2]; Sugar chain No. 931): <1000 M⁻¹ | association constant Ka ([2]; Sugar chain No. 932): <1000 M⁻¹ | association constant Ka ([2]; Sugar chain No. 933): <1000 M⁻¹
